Reference: PMC3403540, “Active Hydrophilic Components of the Medicinal Herb Salvia miltiorrhiza (Danshen) Potently Inhibit Organic Anion Transporters 1 (Slc22a6) and 3 (Slc22a8)” (Evidence-based Complementary and Alternative Medicine : eCAM, 2012)

Tests used:
[1] = molecular target: T1, mOat1 (Mus musculus, UniProt Q8VC69); test: Inhibition of mOat1-mediated [3H]PAH uptake in CHO-mOat1 cells (cell accumulation assay); type: cell-based, murine; settings: for Estimated α value from mixed inhibition model analysis, mOat1: 5 μM PAH for 2 min, mean, α > 1 indicates competitive inhibition; for Ki / inhibition at 1000 µM: 5 μM [3H]PAH; for Ki: 2 min, CHO-mOat1, mean ± S.E.M. (n = 3), from IC50 via Cheng-Prusoff, read-out: Estimated K i for mOat1-mediated transport; for inhibition at 1000 µM: 1 mM (1000 μM) inhibitor, 10 min, CHO-mOat1 cells, read-out: inhibition of mOat1-mediated PAH uptake; for mode of inhibition of mOat1-mediated transport: mixed inhibition model, PAH substrate; for K i ratio (mOat1/mOat3): ratio of Ki on mOat1 to Ki on mOat3
T1 construct: expressed in transfected cells; host or cells: CHO (Chinese hamster ovary), stably transfected (CHO-mOat1)
T1 sequence (Q8VC69 1-545): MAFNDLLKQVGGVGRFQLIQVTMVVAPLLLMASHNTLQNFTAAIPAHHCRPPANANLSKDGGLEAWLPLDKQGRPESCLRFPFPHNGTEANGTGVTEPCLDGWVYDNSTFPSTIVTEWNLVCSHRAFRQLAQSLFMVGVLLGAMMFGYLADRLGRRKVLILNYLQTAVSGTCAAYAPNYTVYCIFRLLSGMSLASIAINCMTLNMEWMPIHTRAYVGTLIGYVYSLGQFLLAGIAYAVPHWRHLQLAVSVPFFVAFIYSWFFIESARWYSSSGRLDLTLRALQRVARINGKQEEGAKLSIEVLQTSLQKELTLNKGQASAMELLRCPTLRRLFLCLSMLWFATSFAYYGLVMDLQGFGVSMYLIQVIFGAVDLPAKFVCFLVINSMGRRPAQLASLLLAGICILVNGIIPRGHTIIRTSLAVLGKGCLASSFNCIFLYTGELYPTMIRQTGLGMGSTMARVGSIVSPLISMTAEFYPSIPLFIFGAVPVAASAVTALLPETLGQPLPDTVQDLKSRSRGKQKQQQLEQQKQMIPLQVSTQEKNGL
Description: Derivation of the stably transfected Chinese hamster ovary (CHO) cell lines expressing mOat1 (CHO-mOat1), mOat3 (CHO-mOat3), and the empty vector (FRT) transfected control cell line (CHO-FRT) was described previously.
Cell transport assay procedures were adapted from those previously published. In brief, 2 × 10^5 cells/well were seeded in 24-well tissue culture plates and grown in the absence of antibiotics for 48 hr. On the day of the experiment, cells were equilibrated with transport buffer for 10 min (500 μL of Hanks' balanced salt solution containing 10 mM HEPES, pH 7.4). […] After incubation, cells were immediately rinsed three times with ice-cold transport buffer, lysed, and analyzed via liquid scintillation counting. Uptake values were normalized to corresponding total protein content in cell lysates as determined by the Bradford method. Substrate accumulation is reported as picomoles of substrate per milligram protein. […] Kinetic calculations were performed using GraphPad Prism Software version 5.0 (GraphPad Software Inc., San Diego, CA, USA). Michaelis constant (K m) values were calculated by nonlinear regression using the Michaelis-Menten model. […] In this study, three curves were constructed (no inhibitor, plus two selected inhibitor concentrations) with uptake of substrate plotted as a function of its concentration for each condition. […] The parameter, α, can then be used to determine the mode of inhibition. When α is very large (α > 1), it indicates competitive inhibition. […] Results were confirmed by repeating all experiments at least three times with triplicate wells for each data point in every experiment.
Figure 3 Michaelis-Menten kinetics of PAH transport in CHO-mOat1 cells. In order to calculate K i values for mOat1, the K m value for PAH needed to be determined in the CHO-mOat1 cell system. […] The corrected curve (closed circles) was obtained by subtracting the nonspecific background uptake as measured in the CHO-FRT cells from CHO-mOat1 accumulation to allow analysis of mOat1-mediated activity. Experiments were repeated three times in triplicate, and Michaelis constant (K m) values were calculated by nonlinear regression using the Michaelis-Menten model. […] Graph shown is from a representative experiment with values plotted as mean ± S.D. (n = 3).
Figure 2 Inhibition profile of mOat1 and mOat3. […] (b) Inhibition of mOat3-mediated uptake of [^3H]ES (1 μM) by LSA, PCA, RMA, SAA, SAB, TSL, and probenecid (1000 μM) was measured in the CHO-mOat3 cells (10 min). […] Values are mean ± S.D. of triplicate values. ***denotes P < 0.001 as determined by one-way ANOVA followed by Dunnett's t-test.
Figure 4 K i determination for LSA, RMA, and SAA in the CHO-mOat1 cell line. […] (5 μM) in CHO-mOat1 cells was measured in the presence of increasing concentrations (10^−7 to 5 × 10^−4 M) of LSA, RMA, and SAA. Data were corrected for nonspecific background measured in the CHO-FRT cells prior to kinetic analysis. K i values were determined with non-linear regression and the “one-site competition” model using GraphPad Prism software. Graphs shown are from representative experiments with values plotted as mean ± S.D. (n = 3).

[2] = design: method as in PMID 15866491; settings: healthy humans, i.v. dosing of a Danshen product; cited from earlier work
[3] = rats, cited from earlier work
[4] = rat plasma; cited from earlier work

Row | Estimated α value from mixed inhibition model analysis, mOat1 [1] | Ki [1] | inhibition at 1000 µM [1] | mode of inhibition of mOat1-mediated transport [1] | K i ratio (mOat1/mOat3) [1] | Structure (SMILES) | Cmax [2] | increase of AUC on spiking additional SAA into Danshen preparations [3] | reduction of clearance on spiking additional SAA into Danshen preparations [3] | unbound renal clearance relative to glomerular filtration rate ([3]; fold greater than the glomerular filtration rate) | plasma protein binding [4]
1 | 6.7 × 10^11 | 14.9 ± 4.9 µM | 70 to 85% | competitive | 0.48 | O=C(/C=C/c1ccc(O)c2c1[C@H](C(=O)O)[C@@H](c1ccc(O)c(O)c1)O2)O[C@H](Cc1ccc(O)c(O)c1)C(=O)O [LSA, lithospermic acid] | 2.1 µM | – | – | – | –
2 | 1.3 × 10^12 | 5.5 ± 2.2 µM | > 95% | competitive | 1.29 | O=C(/C=C/c1ccc(O)c(O)c1)O[C@H](Cc1ccc(O)c(O)c1)C(=O)O [RMA, rosmarinic acid] | 6.7 µM | – | – | – | –
3 | 2.6 × 10^14 | 4.9 ± 2.2 µM | > 95% | competitive | 0.23 | O=C(/C=C/c1ccc(O)c(O)c1/C=C/c1ccc(O)c(O)c1)O[C@H](Cc1ccc(O)c(O)c1)C(=O)O [SAA, salvianolic acid A] | – | – | – | – | –

Row | Structure (SMILES) | Estimated α value from mixed inhibition model analysis, mOat1 [1] | Ki [1] | inhibition at 1000 µM [1] | mode of inhibition of mOat1-mediated transport [1] | K i ratio (mOat1/mOat3) [1] | Cmax [2] | increase of AUC on spiking additional SAA into Danshen preparations [3] | reduction of clearance on spiking additional SAA into Danshen preparations [3] | unbound renal clearance relative to glomerular filtration rate ([3]; fold greater than the glomerular filtration rate) | plasma protein binding [4]
4 | O=C(O)C(O)Cc1ccc(O)c(O)c1 (stereo not shown) [TSL, tanshinol] | – | – | 70 to 85% | – | – | – | 26.7% | 32.9% | ~ 5 X | 25%
